Numbers after ± are expanded uncertainties.
Details: 101.33 kPa, Liquid

CCCC[n+]1cccc(C)c1.O=S(=O)([N-]S(=O)(=O)C(F)(F)F)C(F)(F)F
Details	mass density [kg/m3]
278.15 K	1431.2 ± 1.8
283.15 K	1426.6 ± 1.8
288.15 K	1421.9 ± 1.8
293.15 K	1417.4 ± 1.8
298.15 K	1412.8 ± 1.7
303.15 K	1408.2 ± 1.7
308.15 K	1403.6 ± 1.7
313.15 K	1399 ± 1.7
318.15 K	1394.5 ± 1.7
323.15 K	1389.9 ± 1.7
328.15 K	1385.4 ± 1.7
333.15 K	1380.9 ± 1.7
338.15 K	1376.4 ± 1.7
343.15 K	1371.9 ± 1.7
348.15 K	1367.4 ± 1.7
353.15 K	1362.9 ± 1.6
358.15 K	1358.5 ± 1.6
363.15 K	1354.1 ± 1.6

Capillary tube (Ostwald / Ubbelohde) method
Details	viscosity [mPa·s]
278.15 K	195.43 ± 4.6
283.15 K	142.73 ± 2.7
288.15 K	107.15 ± 1.6
293.15 K	82.19 ± 0.97
298.15 K	64.36 ± 0.62
303.15 K	51.39 ± 0.45
308.15 K	41.64 ± 0.4
313.15 K	34.26 ± 0.33
318.15 K	28.57 ± 0.27
323.15 K	24.1 ± 0.23
328.15 K	20.57 ± 0.2
333.15 K	17.71 ± 0.17
338.15 K	15.38 ± 0.15
343.15 K	13.47 ± 0.13
348.15 K	11.9 ± 0.11
353.15 K	10.56 ± 0.1
358.15 K	9.44 ± 0.091
363.15 K	8.484 ± 0.082

CCCC[n+]1ccc(C)cc1.O=S(=O)([N-]S(=O)(=O)C(F)(F)F)C(F)(F)F
Details	mass density [kg/m3]	viscosity [mPa·s]
278.15 K	1431 ± 1.8	169.9 ± 11
283.15 K	1426.3 ± 1.8	124.19 ± 6.2
288.15 K	1421.6 ± 1.8	93.27 ± 3.2
293.15 K	1416.9 ± 1.8	71.72 ± 1.5
298.15 K	1412.2 ± 1.7	56.33 ± 0.6
303.15 K	1407.6 ± 1.7	45.07 ± 0.66
308.15 K	1402.9 ± 1.7	36.67 ± 0.54
313.15 K	1398.3 ± 1.7	30.28 ± 0.44
318.15 K	1393.6 ± 1.7	25.34 ± 0.37
323.15 K	1389 ± 1.7	21.45 ± 0.32
328.15 K	1384.4 ± 1.7	18.36 ± 0.27
333.15 K	1379.8 ± 1.7	15.87 ± 0.24
338.15 K	1375.3 ± 1.7	13.82 ± 0.21
343.15 K	1370.7 ± 1.7	12.13 ± 0.18
348.15 K	1366.2 ± 1.7	10.72 ± 0.16
353.15 K	1361.7 ± 1.6	9.54 ± 0.15
358.15 K	1357.2 ± 1.6	8.531 ± 0.13
363.15 K	1352.7 ± 1.6	7.673 ± 0.12

CCCCCC[n+]1ccccc1.O=S(=O)([N-]S(=O)(=O)C(F)(F)F)C(F)(F)F [1-hexylpyridinium bis(trifluromethylsulfonyl)imide]
Details	mass density [kg/m3]	viscosity [mPa·s]
278.15 K	1412.5 ± 1.7	322.08 ± 32
283.15 K	1407.8 ± 1.7	229.05 ± 19
288.15 K	1403.2 ± 1.7	167.56 ± 11
293.15 K	1398.7 ± 1.7	125.56 ± 6.3
298.15 K	1394.2 ± 1.7	96.21 ± 3.5
303.15 K	1389.7 ± 1.7	75.22 ± 1.7
308.15 K	1385.2 ± 1.7	59.86 ± 0.75
313.15 K	1380.7 ± 1.7	48.42 ± 0.7
318.15 K	1376.3 ± 1.7	39.74 ± 0.58
323.15 K	1371.8 ± 1.7	33.04 ± 0.48
328.15 K	1367.3 ± 1.7	27.79 ± 0.41
333.15 K	1362.9 ± 1.6	23.64 ± 0.35
338.15 K	1358.5 ± 1.6	20.3 ± 0.3
343.15 K	1354 ± 1.6	17.58 ± 0.26
348.15 K	1349.6 ± 1.6	15.35 ± 0.23
353.15 K	1345.3 ± 1.6	13.51 ± 0.2
358.15 K	1340.9 ± 1.6	11.96 ± 0.18
363.15 K	1336.6 ± 1.6	10.66 ± 0.16

CCCC[n+]1ccccc1.O=S(=O)([N-]S(=O)(=O)C(F)(F)F)C(F)(F)F [1-butylpyridinium bis[(trifluoromethyl)sulfonyl]imide]
Details	mass density [kg/m3]	viscosity [mPa·s]
278.15 K	1467.6 ± 1.9	181.81 ± 13
283.15 K	1462.8 ± 1.9	133.34 ± 7.1
288.15 K	1458.1 ± 1.8	100.65 ± 3.9
293.15 K	1453.4 ± 1.8	77.72 ± 1.9
298.15 K	1448.7 ± 1.8	61.25 ± 0.82
303.15 K	1444 ± 1.8	49.15 ± 0.72
308.15 K	1439.3 ± 1.8	40.09 ± 0.58
313.15 K	1434.6 ± 1.8	33.17 ± 0.49
318.15 K	1430 ± 1.8	27.81 ± 0.41
323.15 K	1425.4 ± 1.8	23.59 ± 0.35
328.15 K	1420.7 ± 1.8	20.23 ± 0.3
333.15 K	1416.1 ± 1.8	17.51 ± 0.26
338.15 K	1411.6 ± 1.7	15.28 ± 0.23
343.15 K	1407 ± 1.7	13.44 ± 0.2
348.15 K	1402.5 ± 1.7	11.91 ± 0.18
353.15 K	1398 ± 1.7	10.62 ± 0.16
358.15 K	1393.5 ± 1.7	9.528 ± 0.15
363.15 K	1389 ± 1.7	8.594 ± 0.13

CCC[n+]1cccc(C)c1.O=S(=O)([N-]S(=O)(=O)C(F)(F)F)C(F)(F)F
Details	mass density [kg/m3]	viscosity [mPa·s]
278.15 K	1467.1 ± 1.9	159.86 ± 10
283.15 K	1462.3 ± 1.9	117.81 ± 5.5
288.15 K	1457.5 ± 1.8	89.22 ± 2.9
293.15 K	1452.8 ± 1.8	69.11 ± 1.3
298.15 K	1447.5 ± 1.8	54.94 ± 0.55
303.15 K	1442.8 ± 1.8	44.22 ± 0.64
308.15 K	1438.1 ± 1.8	36.15 ± 0.53
313.15 K	1433.4 ± 1.8	29.98 ± 0.44
318.15 K	1428.8 ± 1.8	25.2 ± 0.37
323.15 K	1424.1 ± 1.8	21.43 ± 0.32
328.15 K	1419.5 ± 1.8	18.41 ± 0.27
333.15 K	1414.9 ± 1.8	15.97 ± 0.24
338.15 K	1410.3 ± 1.7	13.97 ± 0.21
343.15 K	1405.7 ± 1.7	12.31 ± 0.19
348.15 K	1401.1 ± 1.7	10.93 ± 0.17
353.15 K	1396.6 ± 1.7	9.769 ± 0.15
358.15 K	1392.1 ± 1.7	8.782 ± 0.14
363.15 K	1387.7 ± 1.7	7.937 ± 0.12

CCCCCCCC[n+]1cccc(C)c1 [1-octyl-3-methylpyridinium]
Details	mass density [kg/m3]	viscosity [mPa·s]
278.15 K	1347.2 ± 1.6	398.72 ± 45
283.15 K	1342.7 ± 1.6	281.38 ± 26
288.15 K	1338.2 ± 1.6	204.35 ± 16
293.15 K	1333.8 ± 1.6	151.98 ± 9.2
298.15 K	1329.5 ± 1.6	115.55 ± 5.3
303.15 K	1325.2 ± 1.6	89.6 ± 2.9
308.15 K	1320.9 ± 1.6	70.72 ± 1.4
313.15 K	1316.6 ± 1.5	56.77 ± 0.62
318.15 K	1312.3 ± 1.5	46.23 ± 0.67
323.15 K	1308 ± 1.5	38.14 ± 0.56
328.15 K	1303.7 ± 1.5	31.86 ± 0.47
333.15 K	1299.5 ± 1.5	26.91 ± 0.4
338.15 K	1295.2 ± 1.5	22.95 ± 0.34
343.15 K	1290.9 ± 1.5	19.77 ± 0.29
348.15 K	1286.7 ± 1.5	17.16 ± 0.26
353.15 K	1282.5 ± 1.5	15.02 ± 0.23
358.15 K	1278.3 ± 1.5	13.23 ± 0.2
363.15 K	1274.1 ± 1.5	11.74 ± 0.18

— the NIST ThermoML archive (doi:10.1021/je100377k)
